Conditions: Liquid; for speed of sound: Linear variable-path acoustic interferometer; for mass density: Vibrating tube method

CCCC[n+]1ccn(C)c1.O=S(=O)([N-]S(=O)(=O)C(F)(F)F)C(F)(F)F
Conditions | mass density [kg/m3] | speed of sound [m/s]
283.15 K, 100 kPa | – | 1264.5
283.15 K, 5090 kPa | – | 1280.8
283.15 K, 9980 kPa | – | 1296.8
283.15 K, 20020 kPa | – | 1327.9
283.15 K, 29950 kPa | – | 1357.3
283.15 K, 44830 kPa | – | 1398.7
283.15 K, 59710 kPa | – | 1437.5
283.15 K, 79700 kPa | – | 1486.8
283.15 K, 98920 kPa | – | 1531.3
283.15 K, 124410 kPa | – | 1586.6
283.15 K, 151000 kPa | – | 1640.5
293.15 K, 100 kPa | – | 1238.1
293.15 K, 5000 kPa | – | 1254.6
293.15 K, 10020 kPa | – | 1271.2
293.15 K, 20010 kPa | – | 1302.5
293.15 K, 59650 kPa | – | 1411.8
293.15 K, 99720 kPa | – | 1505.9
293.15 K, 151200 kPa | – | 1611.9
298.15 K, 100 kPa | 1437.04 | –
298.15 K, 5000 kPa | 1440.78 | –
298.15 K, 7460 kPa | 1442.64 | –
298.15 K, 9920 kPa | 1444.45 | –
298.15 K, 12380 kPa | 1446.22 | –
298.15 K, 14840 kPa | 1447.99 | –
298.15 K, 17300 kPa | 1449.71 | –
298.15 K, 19760 kPa | 1451.41 | –
298.15 K, 22210 kPa | 1453.09 | –
298.15 K, 24670 kPa | 1454.75 | –
298.15 K, 27130 kPa | 1456.4 | –
298.15 K, 29590 kPa | 1458.04 | –
298.15 K, 32050 kPa | 1459.61 | –
298.15 K, 34510 kPa | 1461.19 | –
298.15 K, 36970 kPa | 1462.78 | –
298.15 K, 39430 kPa | 1464.31 | –
298.15 K, 41880 kPa | 1465.81 | –
298.15 K, 44340 kPa | 1467.33 | –
298.15 K, 46800 kPa | 1468.8 | –
298.15 K, 49260 kPa | 1470.28 | –
298.15 K, 51720 kPa | 1471.69 | –
298.15 K, 54180 kPa | 1473.13 | –
298.15 K, 56640 kPa | 1474.55 | –
298.15 K, 59100 kPa | 1475.94 | –
303.14 K, 100 kPa | 1432.49 | –
303.14 K, 5000 kPa | 1436.13 | –
303.14 K, 7460 kPa | 1437.93 | –
303.14 K, 9920 kPa | 1439.73 | –
303.14 K, 12380 kPa | 1441.51 | –
303.14 K, 14840 kPa | 1443.23 | –
303.14 K, 17300 kPa | 1444.96 | –
303.14 K, 19760 kPa | 1446.65 | –
303.14 K, 22210 kPa | 1448.37 | –
303.14 K, 24670 kPa | 1449.99 | –
303.14 K, 27130 kPa | 1451.64 | –
303.14 K, 29590 kPa | 1453.25 | –
303.14 K, 32050 kPa | 1454.87 | –
303.14 K, 34510 kPa | 1456.47 | –
303.14 K, 36970 kPa | 1458.05 | –
303.14 K, 39430 kPa | 1459.6 | –
303.14 K, 41880 kPa | 1461.17 | –
303.14 K, 44340 kPa | 1462.67 | –
303.14 K, 46800 kPa | 1464.2 | –
303.14 K, 49260 kPa | 1465.69 | –
303.14 K, 51720 kPa | 1467.16 | –
303.14 K, 54180 kPa | 1468.67 | –
303.14 K, 56640 kPa | 1470.14 | –
303.14 K, 59100 kPa | 1471.59 | –
303.15 K, 100 kPa | – | 1217.5
303.15 K, 5030 kPa | – | 1234
303.15 K, 10000 kPa | – | 1250.7
303.15 K, 20030 kPa | – | 1282.8
303.15 K, 59720 kPa | – | 1393.5
303.15 K, 98960 kPa | – | 1485.9
303.15 K, 150840 kPa | – | 1592.9
308.09 K, 100 kPa | 1427.92 | –
308.09 K, 5000 kPa | 1431.5 | –
308.09 K, 7460 kPa | 1433.28 | –
308.09 K, 9920 kPa | 1435.07 | –
308.09 K, 12380 kPa | 1436.81 | –
308.09 K, 14840 kPa | 1438.55 | –
308.09 K, 17300 kPa | 1440.27 | –
308.09 K, 19760 kPa | 1441.96 | –
308.09 K, 22210 kPa | 1443.64 | –
308.09 K, 24670 kPa | 1445.32 | –
308.09 K, 27130 kPa | 1446.94 | –
308.09 K, 29590 kPa | 1448.61 | –
308.09 K, 32050 kPa | 1450.21 | –
308.09 K, 34510 kPa | 1451.8 | –
308.09 K, 36970 kPa | 1453.43 | –
308.09 K, 39430 kPa | 1454.99 | –
308.09 K, 41880 kPa | 1456.59 | –
308.09 K, 44340 kPa | 1458.14 | –
308.09 K, 46800 kPa | 1459.69 | –
308.09 K, 49260 kPa | 1461.21 | –
308.09 K, 51720 kPa | 1462.74 | –
308.09 K, 54180 kPa | 1464.26 | –
308.09 K, 56640 kPa | 1465.8 | –
308.09 K, 59100 kPa | 1467.28 | –
313.15 K, 100 kPa | 1422.99 | 1194.5
313.15 K, 5000 kPa | 1426.56 | –
313.15 K, 5010 kPa | – | 1211.5
313.15 K, 7460 kPa | 1428.4 | –
313.15 K, 9920 kPa | 1430.14 | –
313.15 K, 10010 kPa | – | 1228.7
313.15 K, 12380 kPa | 1431.97 | –
313.15 K, 14840 kPa | 1433.7 | –
313.15 K, 17300 kPa | 1435.41 | –
313.15 K, 19760 kPa | 1437.1 | –
313.15 K, 19960 kPa | – | 1261.1
313.15 K, 22210 kPa | 1438.8 | –
313.15 K, 24670 kPa | 1440.5 | –
313.15 K, 27130 kPa | 1442.16 | –
313.15 K, 29590 kPa | 1443.8 | –
313.15 K, 32050 kPa | 1445.44 | –
313.15 K, 34510 kPa | 1447.05 | –
313.15 K, 36970 kPa | 1448.67 | –
313.15 K, 39430 kPa | 1450.26 | –
313.15 K, 41880 kPa | 1451.88 | –
313.15 K, 44340 kPa | 1453.41 | –
313.15 K, 46800 kPa | 1455.01 | –
313.15 K, 49260 kPa | 1456.51 | –
313.15 K, 51720 kPa | 1458.07 | –
313.15 K, 54180 kPa | 1459.64 | –
313.15 K, 56640 kPa | 1461.15 | –
313.15 K, 59100 kPa | 1462.71 | –
313.15 K, 59730 kPa | – | 1373.5
313.15 K, 98970 kPa | – | 1466.4
313.15 K, 150890 kPa | – | 1573.2
318.14 K, 100 kPa | 1418.06 | –
318.14 K, 5000 kPa | 1421.63 | –
318.14 K, 7460 kPa | 1423.41 | –
318.14 K, 9920 kPa | 1425.23 | –
318.14 K, 12380 kPa | 1427 | –
318.14 K, 14840 kPa | 1428.76 | –
318.14 K, 17300 kPa | 1430.5 | –
318.14 K, 19760 kPa | 1432.21 | –
318.14 K, 22210 kPa | 1433.93 | –
318.14 K, 24670 kPa | 1435.62 | –
318.14 K, 27130 kPa | 1437.31 | –
318.14 K, 29590 kPa | 1439.01 | –
318.14 K, 32050 kPa | 1440.66 | –
318.14 K, 34510 kPa | 1442.31 | –
318.14 K, 36970 kPa | 1443.93 | –
318.14 K, 39430 kPa | 1445.59 | –
318.14 K, 41880 kPa | 1447.2 | –
318.14 K, 44340 kPa | 1448.84 | –
318.14 K, 46800 kPa | 1450.43 | –
318.14 K, 49260 kPa | 1452.03 | –
318.14 K, 51720 kPa | 1453.64 | –
318.14 K, 54180 kPa | 1455.23 | –
318.14 K, 56640 kPa | 1456.83 | –
318.14 K, 59100 kPa | 1458.39 | –
323.14 K, 100 kPa | 1413.69 | –
323.14 K, 5000 kPa | 1417.31 | –
323.14 K, 7460 kPa | 1419.14 | –
323.14 K, 9920 kPa | 1420.97 | –
323.14 K, 12380 kPa | 1422.8 | –
323.14 K, 14840 kPa | 1424.57 | –
323.14 K, 17300 kPa | 1426.35 | –
323.14 K, 19760 kPa | 1428.11 | –
323.14 K, 22210 kPa | 1429.82 | –
323.14 K, 24670 kPa | 1431.56 | –
323.14 K, 27130 kPa | 1433.26 | –
323.14 K, 29590 kPa | 1434.96 | –
323.14 K, 32050 kPa | 1436.63 | –
323.14 K, 34510 kPa | 1438.32 | –
323.14 K, 36970 kPa | 1439.98 | –
323.14 K, 39430 kPa | 1441.63 | –
323.14 K, 41880 kPa | 1443.28 | –
323.14 K, 44340 kPa | 1444.91 | –
323.14 K, 46800 kPa | 1446.54 | –
323.14 K, 49260 kPa | 1448.18 | –
323.14 K, 51720 kPa | 1449.79 | –
323.14 K, 54180 kPa | 1451.4 | –
323.14 K, 56640 kPa | 1453.01 | –
323.14 K, 59100 kPa | 1454.62 | –
323.15 K, 100 kPa | – | 1172.6
323.15 K, 5050 kPa | – | 1190.2
323.15 K, 10030 kPa | – | 1207.8
323.15 K, 19940 kPa | – | 1241
323.15 K, 59810 kPa | – | 1355.9
323.15 K, 99220 kPa | – | 1450.8
323.15 K, 150840 kPa | – | 1557.4
328.2 K, 100 kPa | 1408.32 | –
328.2 K, 5000 kPa | 1412.04 | –
328.2 K, 7460 kPa | 1413.97 | –
328.2 K, 9920 kPa | 1415.75 | –
328.2 K, 12380 kPa | 1417.61 | –
328.2 K, 14840 kPa | 1419.44 | –
328.2 K, 17300 kPa | 1421.25 | –
328.2 K, 19760 kPa | 1423.05 | –
328.2 K, 22210 kPa | 1424.84 | –
328.2 K, 24670 kPa | 1426.58 | –
328.2 K, 27130 kPa | 1428.34 | –
328.2 K, 29590 kPa | 1430.04 | –
328.2 K, 32050 kPa | 1431.76 | –
328.2 K, 34510 kPa | 1433.46 | –
328.2 K, 36970 kPa | 1435.15 | –
328.2 K, 39430 kPa | 1436.83 | –
328.2 K, 41880 kPa | 1438.52 | –
328.2 K, 44340 kPa | 1440.15 | –
328.2 K, 46800 kPa | 1441.79 | –
328.2 K, 49260 kPa | 1443.46 | –
328.2 K, 51720 kPa | 1445.11 | –
328.2 K, 54180 kPa | 1446.72 | –
328.2 K, 56640 kPa | 1448.35 | –
328.2 K, 59100 kPa | 1449.96 | –

From the NIST ThermoML archive (doi:10.1016/j.jct.2005.04.018)
